In publication PMC9780825, “Combining mKate2-Kv1.3 Channel and Atto488-Hongotoxin for the Studies of Peptide Pore Blockers on Living Eukaryotic Cells” (Toxins, 2022):

Experiments:
[1] = biological target: K-ΔKv1.3 (N-terminally truncated human Kv1.3 tagged with mKate2) (Homo sapiens, UniProt P22001); assay: Fluorescent competitive binding assay (FCBA), displacement of A-HgTx from K-ΔKv1.3; set-up: expressed in transfected cells; host or cells: HEK293 (transient transfection with pmKate2-KCNA3-del)
Excerpt: To quantitatively characterize formation of complexes between A-HgTx and K-ΔKv1.3 on cell membranes, the confocal images of A-HgTx bound at the membrane of the K-ΔKv1.3 presenting cells were subjected to the treatment procedure as follows. Regions of interest (ROIs) corresponding to the plasma membranes stained with K-ΔKv1.3 were selected. Using a set of these ROIs and a threshold procedure (to null a background signal from pixels without K-ΔKv1.3 signal), the binary (0;1) mask that describes membranous localization of K-ΔKv1.3 was created. The images of K-ΔKv1.3 and A-HgTx distribution were multiplied by the corresponding mask. Next, average intensities of fluorescence of K-ΔKv1.3 (Ici) and A-HgTx (Ili) were calculated for each ROI (i.e., for each i-cell), and a ratio Ri was calculated as follows. Ri = (Ili − Ilb)/(Ici − Icb) (1) where Ilb and Icb are intensities of background signals in the fluorescent images of A-HgTx and Kv1.3 channels, respectively. Calculating Ri (i.e., normalizing A-HgTx intensity to that of K-ΔKv1.3), a correction was introduced for variations in a level of K-ΔKv1.3 expression on the membrane of particular cells. Ri values of 15–20 cells were averaged to obtain the Rav value, and a standard deviation was calculated.
Concentration of A-HgTx was 2 nM. Concentration of pore blockers C varied as indicated in the graph.
When Kd of A-HgTx and IC50 for the studied compound are known, the apparent dissociation constant Kap of complexes between the compound and channel can be calculated using the Cheng-Prusoff equation [50]:Kap = IC50/(1 + L/Kd)(4) where L is the concentration of A-HgTx in the competitive binding experiment.
In A-HgTx binding experiments, cells were incubated with A-HgTx (0.15–4 nM) for 30 min (37 °C, 5% CO2) in the complete medium. In competitive binding experiments, cells were incubated with A-HgTx (2 nM) and selected pore blocker at variable concentrations (0.5–100 nM for recombinant peptides and 1–20 mM for TEA) for 30 min (37 °C, 5% CO2) in the complete medium.
Experiments with HEK293 cells were performed with a laser scanning confocal microscope Leica-SP2 (Leica Microsystems GmbH, Wetzlar, Germany). The water-immersion 63×/1.2 NA HCX PL APO objective was used.
Fluorescence of mKate2-fused hKv1.3 was excited at the 561 nm wavelength and recorded in the 650–700 nm range. Fluorescence of A-HgTx was excited at the 488 nm wavelength and recorded in the 495–535 nm range. Distributions of A-HgTx and mKate2 fluorescence in cells were imaged using sequential scanning to avoid interference of intrinsic cellular fluorescence excited at the 488 nm with the mKate2 fluorescence.
Each experimental point in the curves describing interaction A-HgTx with mKate2-tagged Kv1.3 channels is an average over 15–25 treated images of cells. […]

[2] = biological target: Kv1.3 channel; conditions: whole-cell patch-clamp; mouse channels, L929 mouse fibroblast cells; read-out: Kd (published); cited from earlier work
Excerpt: Table 1 The Kap values for the complexes formed by K-ΔKv1.3 with the studied pore blockers and published data on the affinities of these blockers. | column: KTx1; ChTx; AgTx2; TEA

K-ΔKv1.3 (N-terminally truncated human Kv1.3 tagged with mKate2), sequence (P22001 53-575 limits assumed, stated change not applied): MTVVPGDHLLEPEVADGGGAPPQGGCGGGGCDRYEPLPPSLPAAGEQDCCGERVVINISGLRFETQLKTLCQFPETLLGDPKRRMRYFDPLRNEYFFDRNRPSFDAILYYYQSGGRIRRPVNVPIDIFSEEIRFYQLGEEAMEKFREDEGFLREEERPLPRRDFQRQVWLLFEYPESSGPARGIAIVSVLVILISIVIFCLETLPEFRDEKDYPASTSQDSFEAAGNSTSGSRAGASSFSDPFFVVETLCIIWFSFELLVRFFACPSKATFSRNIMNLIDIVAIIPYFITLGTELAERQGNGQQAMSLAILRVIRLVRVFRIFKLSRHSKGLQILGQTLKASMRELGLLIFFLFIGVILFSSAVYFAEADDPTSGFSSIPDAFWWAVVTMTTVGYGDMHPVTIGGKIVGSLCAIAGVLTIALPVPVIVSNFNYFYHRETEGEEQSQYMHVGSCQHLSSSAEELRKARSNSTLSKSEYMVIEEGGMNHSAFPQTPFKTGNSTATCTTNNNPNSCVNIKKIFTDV

For `CC[N+](CC)(CC)CC` [TEA, tetraethylammonium], the Kd ([1]; Cheng-Prusoff from IC50, 2 nM A-HgTx, blockers 0.5–100 nM (peptides) or 1–20 mM (TEA), 30 min, 37 °C, 5% CO2, complete medium, HEK293 cells, mean ± SEM, three independent measurements, read-out: Kap, apparent dissociation constant of complexes formed by K-ΔKv1.3 with pore blocker) was 2 mM, the “active concentration range (FCBA)” value ([1]; FCBA, HEK293 cells, result in words) was “active in the millimolar concentration range” and the “displacement of A-HgTx from the complexes with K-ΔKv1.3” value ([1]; living HEK293 cells, 2 nM A-HgTx, result in words) was “A-HgTx is also displaced”. For the same compound, the Kd [2] was 10 mM.
